The source of these data is patent US5210215A, “Tryptophane and 3-indolepyruvic acid, methods of production therefor” (Polifarma S.p.A., priority 1989, dated 1993).

Read-outs that look alike come from different tables or passages of the source.

The subject of assay [1] is convulsions and death induced by NMDA (N-methyl-D-aspartic acid). The assay is described as follows: Antagonism of convulsions and death induced by NMDA (N-methyl-D-aspartic acid). The settings on record: Mus musculus, ip, mice, IC50 = dose necessary to reduce by 50% the harmful effect. Format: in vivo. On the procedure: For the second experiment, on the contrary, the capacity of the compounds to antagonize the convulsions and death induced by NMDA (N-methyl-D-aspartic acid), an excitatory amino acid, was evaluated.
(§1) of compound necessary to reduce by 50% the harmful effect to be added to the in vitro tests or to be administered to mice.

In assay [2] the test system is formation of free radicals from biological membrane undergoing oxidative stress (MDA formation). Description: Formation of malonodialdehyde (MDA) test: antagonism of free radical formation from biological membrane undergoing oxidative stress. The class given is biochemical. The settings on record: in vitro; IC50 = dose of compound necessary to reduce by 50% the harmful effect. On the procedure: For the first experiment was chosen the test on formation of malonodialdehyde (MDA). Briefly, the capacity was tested of the above compounds to antagonize the formation of free radicals from biological membrane undergoing oxidative stress.
as §1

Where [3] appears, read: convulsions, read-out: CONVULSIONS from MDA IC50.
Setting [4] is: death, read-out: DEATH from MDA IC50.

Consider `NC(Cc1c[nH]c2cc(Cl)ccc12)C(=O)O` (racemic) [6-Cl-TRP, 6-chloro-DL-tryptophan], for which the values for the ED50 in assay [1] (setting [3]) and in assay [1] (setting [4]) were 1000 mg/kg and 200 mg/kg, respectively. Also, half-maximal inhibition in assay [2] (IC50) was put at 1000 µM.
The corresponding values for `O=C(O)C(=O)Cc1c[nH]c2cccc(Cl)c12` [4-Cl-IPA, 4-chloro-indole-3-yl-pyruvic] are 1000 mg/kg, 200 mg/kg and 1000 µM.
The like results for `O=C(O)C(=O)Cc1c[nH]c2ccc(Cl)cc12` [5-Cl-IPA, 5-chloro-indole-3-yl-pyruvic] were, in that order, 600 mg/kg, 200 mg/kg and 500 µM.
The like results for `O=C(O)C(=O)Cc1c[nH]c2cc(Br)ccc12` [6-Br-IPA] were, in that order, 100 mg/kg, 20 mg/kg and 50 µM.
Take `O=C(O)C(=O)Cc1c[nH]c2cc(Cl)ccc12` [6-Cl-IPA, 6-chloro-indole-3-yl-pyruvic acid]: the ED50 in assay [1] (setting [3]) came out at 20 mg/kg; in assay [1] (setting [4]), 10 mg/kg. Moreover, the 50% inhibitory concentration (IC50) – broadly, the concentration that inhibits the measured activity by half – in assay [2] was determined as 100 µM.
The like results for `Cc1ccc2c(CC(=O)C(=O)O)c[nH]c2c1` [6-Me-IPA, 6-methyl-indole-3-yl-pyruvic] were, in that order, 200 mg/kg, 100 mg/kg and 60 µM.
The corresponding values for `O=C(O)C(=O)Cc1c[nH]c2cc(O)ccc12` [6-OH-IPA] are 800 mg/kg, 200 mg/kg and 500 µM.
With `COc1ccc2c(CC(=O)C(=O)O)c[nH]c2c1` [6-OMe-IPA], the ED50 in assay [1] (setting [3]) stood at 200 mg/kg; in assay [1] (setting [4]), 100 mg/kg. For the same compound, in assay [2], the IC50 worked out at 100 µM.
The like results for `O=C(O)C(=O)Cc1c[nH]c2c(Cl)cccc12` [7-Cl-IPA] were, in that order, 1000 mg/kg, 200 mg/kg and 400 µM.
The like results for `O=C(O)C(=O)Cc1c[nH]c2ccccc12` [IPA, 3-indolepyruvic acid] were, in that order, 200 mg/kg, 50 mg/kg and 10 µM.
